These results are taken from patent publication US4853463A, “Amino acid derivatives” (Kissei Pharmaceutical Co., Ltd., priority 1985, dated 1989).

SMILES strings stand for the structures.

Experiment [1] addresses T1, human renin (Homo sapiens, UniProt P00797).
T1 sequence (P00797 67-406): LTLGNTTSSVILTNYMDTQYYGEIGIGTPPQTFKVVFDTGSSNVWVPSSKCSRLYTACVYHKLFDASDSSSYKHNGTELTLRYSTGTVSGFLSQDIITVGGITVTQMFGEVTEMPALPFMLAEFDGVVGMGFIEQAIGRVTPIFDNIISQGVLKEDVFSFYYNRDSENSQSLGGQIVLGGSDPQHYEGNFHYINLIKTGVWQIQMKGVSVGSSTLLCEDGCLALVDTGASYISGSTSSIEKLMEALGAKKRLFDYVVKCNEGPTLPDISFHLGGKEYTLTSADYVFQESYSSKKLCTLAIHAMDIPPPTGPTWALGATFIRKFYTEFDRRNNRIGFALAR
Further details: human high renin plasma; from tissue; host or cells: human high renin plasma. The settings on record: reported at 1986 meetings; cited from earlier work.

The target in experiment [2] is T1, human renin. Put plainly: Human renin-sheep renin substrate reaction system in vitro. Type of experiment: biochemical. The settings on record: purified human renin, semipurified sheep renin substrate, pH 7.4, 37° C., 15 minutes. The method, then: Human renin-sheep renin substrate reaction system in vitro
To a mixture containing 200 μl of a 125 mM pyrophosphate buffer (pH 7.4), 25 μl of a 20 mM aqueous solution of L-phenylalanyl-L-alanyl-L-prolin as an angiotensin converting enzyme inhibitor, 50 μl of semipurified sheep renin substrate (2000 ng angiotensin I/ml), 50 μl of dimethyl sulfoxide solution of an amino acid derivative of the present invention or 50 μl of dimethyl sulfoxide as a control and 150 μl of deionized water was added 25 μl of purified human renin (20-30 ng angiotensin I/ml/hr). The mixture was incubated for 15 minutes on a water bath at 37° C., and the reaction mixture was allowed to stand for 5 minutes on a water bath at 100° C. to stop the reaction. After cooling, 200 μl of the solution were taken out and the amount of angiotensin I produced by the addition of renin was determined by radioimmunoassay. The inhibitory effect was calculated by the following equation. [formula]
The molar concentration which produced a 50% inhibition (IC50) was calculated from the inhibition value obtained, and the results are shown below. [drawing 19]

The nature of experiment [3]: Hypotensive effect in marmoset. Type of experiment: in vivo, common marmoset. As to conditions: 30 mg/kg oral, furosemide-treated high renin marmoset, Control 84.3 mmHg. The procedure: Hypotensive effect in marmoset
The experiment was carried out by using common marmoset as described in K. G. Hofbauer et al., Clinical and Experimental hypertension, Vol. A5, Nos. 7 & 8 (1983), pages 1237-1247.
Furosemide was orally administered three times to common marmoset at 15 mg per kilogram per day every other day to create a high renin state. Blood pressure of conscious marmoset was measured 3 days after the last administration of furosemide.
Measurement of blood pressure
A conscious male marmoset weighing 360 g was binded on a monkey chair, and tailarterial pressure was recorded on a pretismograph. The amino acid compound of the present invention, administred orally using a catheter.
(a) Compound: Isopropyl (2RS, 3S)-3-{N-[2-(1-naphthylmethyl)-3-(morpholinocarbonyl)propionyl]-L-alanyl}amino-2-hydroxy-5-methylhexanoate

In experiment [4] the target is T1, human renin. Put plainly: Renin inhibitory effect in a human high renin plasma. Type of experiment: biochemical. Further details: human high renin plasma; from tissue; host or cells: human high renin plasma. As to conditions: phosphate buffer pH 7.0, 37° C., 60 minutes. The method, then:
Renin inhibitory effect in a human high renin plasma
The mixture consisted of 500 μl of human high renin plasma, 50 μl of 20 mM L-phenylalanyl-L-alanyl-L-prolin, an angiotensin converting enzyme inhibitor, 350 μl of 0.5 M phosphate buffer (pH 7.0) containing 14 mM EDTA·2Na and 0.3% neomycin and 100 μl of appropriate concentration of amino acid compound of the present invention dissolved in DMSO or DMSO as a control. A 200 μl sample was taken out from the solution, and was cooled at 4° C. in an ice bath. The remaining sample (800 μl) was incubated for 60 minutes at 37° C. in a water bath. A 200 μl of sample was taken out from the incubated mixture, and chilled immediately in an ice bath. The amount of angiotensin I produced in both samples was determined by radioimmunoassay, and the net amount was estimated as a difference between the samples incubated at 37° C. and the sample cooled at 4° C.
The inhibitory effect was calculated by the following equation: [formula]
The molar concentration which produced 50% inhibition (IC50) was calculated from the inhibition value obtained, and the results are shown below. [drawing 32]

With `COC(=O)C(O)C(CC(C)C)NC(=O)[C@H](Cc1c[nH]cn1)NC(=O)C(CC(=O)NCCc1ccccc1)Cc1cccc2ccccc12` (stereo partly drawn), the “Human renin inhibitory activity” value at human renin [1] is on record as “human renin inhibitory activity”.

As a reminder, the IC50 is the point on the concentration scale where inhibition reaches its midpoint. Low readings indicate greater potency, high ones weaker potency. Take `CC(C)C[C@H](NC(=O)[C@H](C)NC(=O)C(CC(=O)N1CCOCC1)Cc1cccc2ccccc12)C(O)C(=O)OC(C)C` (mixture of isomers) [No. 1, Isopropyl (2RS, 3S)-3-{N-[2-(1-naphthylmethyl)-3-(morpholinocarbonyl)propionyl]-L-alanyl}amino-2-hydroxy-5-methylhexanoate]: the IC50 at human renin [2] was 26 nM; at human renin [4], 20 nM. Moreover, the Blood pressure in experiment [3] (1 hour after administration) was determined as 75.8 mmHg; in experiment [3] (2 hours after administration) it was 70.0 mmHg; in experiment [3] (3 hours after administration), 70.0 mmHg; in experiment [3] (5 hours after administration) it was 70.0 mmHg; in experiment [3] (7 hours after administration) it was 72.6 mmHg.

With `COC(=O)C(O)[C@H](CC(C)C)NC(=O)[C@H](CC(C)C)NC(=O)C(CC(=O)N1CCOCC1)Cc1cccc2ccccc12` (mixture of isomers) [No. 3, Methyl (2RS, 3S)-3-{N-[2-(1-naphthylmethyl)-3-(morpholinocarbonyl)propionyl]-L-leucyl}amino-2-hydroxy-5-methylhexanoate], the IC50 came to 30 nM against human renin [2] and 11 nM at human renin [4].

As for `CC(C)CCNC(=O)C[C@H](O)[C@H](CC(C)C)NC(=O)[C@H](CC(C)C)NC(=O)C(CC(=O)N1CCOCC1)Cc1cccc2ccccc12` (stereo partly drawn) [No. 4, N-[2-(1-Naphthylmethyl)-3-(morpholinocarbonyl)-propionyl]-L-leucyl-statiyl isoamylamide], the IC50 came out at 80 nM against human renin [2] and 61 nM at human renin [4].

Turning to `CC(C)C[C@H](NC(=O)C(CC(=O)N1CCOCC1)Cc1cccc2ccccc12)C(=O)N[C@@H](CC(C)C)C(O)C(=O)OC(C)C` (stereo partly drawn) [compound 2], the IC50 at human renin [2] is 14 nM; on human renin [4], 16 nM.

As to `CC(C)C[C@H](NC(=O)[C@@H](NC(=O)C(CC(=O)N1CCOCC1)Cc1cccc2ccccc12)C(C)C)C(O)C(=O)OC(C)C` (stereo partly drawn) [compound 5], the IC50 against human renin [2] turned out to be 6.6 nM; on human renin [4], 3.3 nM.

Regarding `CC(C)C[C@H](NC(=O)[C@H](Cc1ccccc1)NC(=O)C(CC(=O)N1CCOCC1)Cc1cccc2ccccc12)C(O)C(=O)OC(C)C` (stereo partly drawn) [compound 6], the half-maximal inhibitory concentration (IC50) came out at 48 nM at human renin [2] and 140 nM against human renin [4].

In the case of `CC(C)C[C@H](NC(=O)[C@H](Cc1c[nH]c2ccccc12)NC(=O)C(CC(=O)N1CCOCC1)Cc1cccc2ccccc12)C(O)C(=O)OC(C)C` (stereo partly drawn) [compound 7], the IC50 at human renin [2] was found to be 290 nM; against human renin [4], 510 nM.

For `CC(C)C[C@H](NC(=O)[C@H](CO)NC(=O)C(CC(=O)N1CCOCC1)Cc1cccc2ccccc12)C(O)C(=O)OC(C)C` (stereo partly drawn) [compound 8], the values for the IC50 at human renin [2] and against human renin [4] were 26 nM and 7.2 nM, respectively.

With `CC(C)C[C@H](NC(=O)CNC(=O)C(CC(=O)N1CCOCC1)Cc1cccc2ccccc12)C(O)C(=O)OC(C)C` (stereo partly drawn) [compound 9], the half-maximal inhibitory concentration (IC50) on human renin [2] amounted to 390 nM; on human renin [4], 200 nM.

With `CC(C)C[C@H](NC(=O)CCNC(=O)C(CC(=O)N1CCOCC1)Cc1cccc2ccccc12)C(O)C(=O)OC(C)C` (stereo partly drawn) [compound 10], the figures for the IC50 at human renin [2] and against human renin [4] were 130 nM and 46 nM, respectively.

As to `COC(=O)[C@@H]1CCCN1C(=O)CC(Cc1cccc2ccccc12)C(=O)N[C@@H](C)C(=O)N[C@@H](CC(C)C)C(O)C(=O)OC(C)C` (stereo partly drawn) [compound 11], the IC50 is 59 nM against human renin [2] and 44 nM against human renin [4].

Regarding `COC(=O)CN(C)C(=O)CC(Cc1cccc2ccccc12)C(=O)N[C@@H](C)C(=O)N[C@@H](CC(C)C)C(O)C(=O)OC(C)C` (stereo partly drawn) [compound 12], the IC50 at human renin [2] came to 15 nM; against human renin [4] it was 13 nM.
